The subject of one data set is A-549. Briefly: Cytotoxicity assay (MTT), A-549. Type of data set: cell-based, human. Conditions: 48 h exposure. The method, then:
(§1) Five human tumor cell lines (HL-60, MM231, A-549, HEP3B, and SW480), together with one non-cancerous cell line, the human normal colonic epithelial cell NCM460, were used in the cytotoxic activity assay. All cells were cultured in DMEM or RPMI-1640 medium (HyClone, Logan, UT, USA), supplemented with 10% fetal bovine serum (HyClone) at 37 °C in a humidified atmosphere with 5% CO2. The cell survival assay was performed using the MTT method. Briefly, 100 μL suspended cells at an initial density of 1 × 10^5 cells/mL were seeded into each well of the 96-well culture plates and allowed to adhere for 12 h before addition of the test compounds. […] After incubation, culture supernatants were removed and exchanged with medium containing 0.5 mg/mL MTT. Then, after 4 h incubation in darkness at 37 °C, the medium was removed, and cells were added with 100 μL dimethyl sulfoxide. The absorbance at 570 nm was measured and data are expressed as averages of three replicates. The value of inhibition was calculated by using the following formula: % inhibition = (1 − ODtreated/ODcontrol) × 100. The IC50 values were calculated by using a standard dose-response curve fitting with Prism (version 5.0, GraphPad Software, La Jolla, CA, USA).

The subject of the next data set is HEP3B. Briefly: Cytotoxicity assay (MTT), HEP3B. Type of data set: cell-based, human. Conditions: HEP3B (hepatic cancer), 48 h exposure. As for the experimental part:
as §1

The next data set has as its system MM231. As to the kind of experiment: Cytotoxicity assay (MTT), MM231. The class given is cell-based, human. Conditions: MM231 (breast cancer), 48 h exposure. As for the experimental part:
as §1

The next data set concerns NCM460. Briefly: Cytotoxicity assay (MTT), normal colonic epithelial cell NCM460. The class given is cell-based, human. Conditions: for IC50: MTT, 48 h exposure. As for the experimental part: as §1
For the next data set, the system named is SW480. Briefly: Cytotoxicity assay (MTT), SW480. Type of data set: cell-based, human. As to conditions: SW480 (colon cancer), 48 h exposure. As for the experimental part: as §1
In the next data set the test system is HL-60. Briefly: Cytotoxicity assay (MTT), HL-60. Type of data set: cell-based. As to conditions: Homo sapiens, HL-60 (acute leukemia), 48 h exposure. As for the experimental part:
as §1

The mark [1] stands for this setting: Homo sapiens, A549, A-549 (lung cancer).

As for `N.N.[Cl][Pt][Cl]` [Cis-platin, cis-platin, reference compound], the IC50 (usually the concentration needed to halve the response being measured) in the data set on A-549 (A-549 (lung cancer)) was determined as 2.79 ± 0.36 µM; in the data set with HEP3B, 2.96 ± 0.22 µM; with MM231 it was 3.84 ± 0.25 µM; in the data set with NCM460 it was 0.85 ± 0.07 µM; in the data set on SW480, 1.42 ± 0.11 µM.

Turning to `CC(=O)O[C@H]1C(=O)[C@@]2(C)[C@H]([C@H](OC(=O)c3ccccc3)[C@]3(O)C[C@H](OC(=O)[C@H](O)[C@@H](NC(=O)c4ccccc4)c4ccccc4)C(C)=C1C3(C)C)[C@]1(OC(C)=O)CO[C@@H]1C[C@@H]2O` [Paclitaxel, paclitaxel, reference compound], the IC50 in the data set on A-549 (setting [1]), in the data set with HEP3B (Homo sapiens), in the data set on MM231 (Homo sapiens), in the data set on HL-60, in the data set on NCM460 (Homo sapiens) and in the data set on SW480 (Homo sapiens) was less than 0.008 µM each time.

Take `CC1=CC(O)C2C3(C)C(O)CC(=O)C(C)(C)C3CCC2(C)C12Cc1c(c(C)c(C)oc1=O)O2` (stereo not drawn) [compound 1, brevione O]: the IC50 with A-549 (setting [1]), with HEP3B (Homo sapiens), in the data set with MM231 (Homo sapiens), in the data set on HL-60, in the data set on NCM460 (Homo sapiens) and in the data set with SW480 (Homo sapiens) was greater than 40 µM throughout.

Turning to `CC1=C[C@H](O)[C@@H]2[C@@]3(C)C=CC(=O)C(C)(C)[C@@H]3CC[C@@]2(C)[C@]12Cc1c(c(C)c(C)oc1=O)O2` [compound 2, brevione I], the IC50 with A-549 (setting [1]) is 8.6 ± 1.36 µM; in the data set on HEP3B (Homo sapiens) it was 5.5 ± 0.67 µM; in the data set with MM231 (Homo sapiens), greater than 40 µM; in the data set on HL-60, 4.92 ± 0.65 µM; with NCM460 (Homo sapiens), greater than 40 µM; in the data set on SW480 (Homo sapiens), 21.2 ± 2.72 µM. Also, in the data set on NCM460 (result in words), the “cytotoxic activity against the NCM460 cell” value is recorded as “no cytotoxic activity”.

As to `CC1=C[C@H](O)[C@@H]2[C@@]3(C)CCC(=O)C(C)(C)[C@@H]3CC[C@@]2(C)[C@]12Cc1c(c(C)c(C)oc1=O)O2` [compound 3, brevione J], the IC50 is greater than 40 µM with A-549 (setting [1]); greater than 40 µM with HEP3B (Homo sapiens); greater than 40 µM with MM231 (Homo sapiens); 25.6 ± 3.84 µM in the data set on HL-60; greater than 40 µM in the data set with NCM460 (Homo sapiens); greater than 40 µM with SW480 (Homo sapiens).

As for `CC1=CC(=O)C[C@@H]2O[C@@H]3C=C(C)[C@@]45Oc6c(C)c(C)oc(=O)c6[C@@H]4O[C@H](O)[C@]54CC[C@@H]1[C@@]2(C)[C@@H]34` [compound 4, brevione H], the IC50 in the data set on A-549 (setting [1]), with HEP3B (Homo sapiens), in the data set on MM231 (Homo sapiens), in the data set with HL-60, in the data set with NCM460 (Homo sapiens) and in the data set on SW480 (Homo sapiens) was greater than 40 µM in each case.

`C=CC(C)(C)C12CC3C(=O)NC(C(C)C)C(=O)N3C1N(C(C)=O)c1ccccc12` (stereo not drawn) [compound 5, brevicompanine G]: the IC50 was 18.4 ± 2.15 µM in the data set on A-549 (setting [1]); greater than 40 µM in the data set with HEP3B (Homo sapiens); greater than 40 µM with MM231 (Homo sapiens); 21.8 ± 3.48 µM in the data set with HL-60; greater than 40 µM with NCM460 (Homo sapiens); greater than 40 µM in the data set with SW480 (Homo sapiens).

(Values after PMC5923397, “A New Breviane Spiroditerpenoid from the Marine-Derived Fungus Penicillium sp. TJ403-1” (Marine Drugs, 2018).)
